# Test: acetaminophen cytotoxicity, cell viability by XTT assay
# Assay type: cell-based
# Details: 48 hrs incubation, control 100%; for viability at 48 h, 5 mM: acetaminophen 5 mM
# From the text: In the current example, cytotoxicity-induced paracrine EVs were replaced by current existing extracorporeal regimen, in addition to replace depleted body fluids with protective EVs fused during hemodialysis. EV mimetics—Bioxomes or chelator-containing EV mimetics, named Redoxomes as described by us recently in PCT publication no. PCT/IL2019/050391 (incorporated herein by reference) were used. Selected chelator, DSFX—deferoxamine embedded in Redoxomes can be fused with EVs or body fluids, or cells to protect from cytotoxicity damage, prevent liver and kidney failure and mortality, morbidity rate. To establish growth conditions sensitive to proliferation inhibition cytoparameters, calibration of dynamic cell growth parameters was performed by calibration of cell number in CellTiter-Glo Assay (Promega) shown on tables 3 and 4 below in relative units.
# Specific protective anti-cytotoxicity example tested on calibrated above assays of EV mimetic proprietary Bioxome, is shown in table below. Cell viability, %, measured by XTT assay (Biological Industries Beit Haemek). Cell viability without treatment was calibrated by dose dependence to serum conditions and cell density. Cell seeding established for 10000, 20000 cells/well in 96 well plates. For RCB001 cells (liver derived mesenchymal like cells)—10,000 cells. For −HepG2 cells—20,000 cells density used. Cells were grown in DMEM plus 10% exosome depleted FBS (ThermoFisher Scientific).
smiles,measurement,setting,value
CC(=O)Nc1ccc(O)cc1 [Acetaminophen],"viability at 48 h, 5 mM",RCB001 cells (liver derived mesenchymal like cells),57 to 81%
same,"viability at 48 h, 10 mN","RCB001 cells (liver derived mesenchymal like cells), acetaminophen",46%
same,"viability at 48 h, 5 mM","human, HepG2 cells",62%
same,"viability at 48 h, 10 mM","human, HepG2 cells, acetaminophen 10 mM",46%

# Source: patent US20230072523A1, “PROCESS AND SYSTEM FOR ACELLULAR THERAPY” (Orgenesis Inc., priority 2020, published 2023)
